The text below walks through data of US8163776B2, “Method of immunomodulation using thione-forming disulfides” (Grassetti family Trust, priority 2001, dated 2012).

In series [1] the test system is antibody production to keyhole limpet hemocyanin (KLH). Briefly: Humoral response to KLH immunization, immunodot blot. The format is in vivo, BALB/c mice. As for the experimental part:
To perform KLH immunization, KLH was prepared in sterile D-PBS at a concentration of 150 μg in 0.1 ml. Animals were injected 0.1 ml of the preparation subcutaneously. After 15 days and just before sacrifice, a blood sample was collected from each mouse by cardiac puncture. Serum was obtained by centrifugation, aliquoted and frozen (−20° C.) until used.
Immunodot blot assay was used to assess antibody production. Hybond-ECL membrane was used in the immunodot blot assay. A volume of 2 μl of different concentrations (0, 10, 50, 250 μg/ml) of KLH antigen was placed on the dry membrane. Antigen dots were allowed to dry overnight at 4° C. Membrane was blocked with a dry milk solution for 1 hour. Two μl of the antiserum diluted ½, ¼, 1/16, 1/32, 1/64, 1/128 and undiluted was put on the blot and incubated for 1 hour. The membrane was washed with TES buffer solution 3 times. Goat anti-mouse IgG antibodies coupled with horseradish peroxidase were put on the blot and incubated for 1 hour. The membrane was washed with TBS buffer solution 3 times. […] Revelation time was 1 minute. The membrane was exposed for 18 hours to film.
The lower serum dilution where an antibody response is apparent was chosen to calculate antibody titer. The antibody titer corresponded to the inverse of the dilution. The titer was converted to log2, e.g., 8=3 (log2). Results were compared and Student's T test was performed between the control group and the treated group. The p value was calculated for statistical significance.
For this experiment, animals were treated with CPDS for 30 days, immunized subcutaneously with keyhole limpet hemocyanin (KLH) and treated an additional 15 days, at which point blood was collected for antibody detection. […] The antibody titer to KLH was 1/4.29 (2.13 log2) for control group and 1/2.00 (1.00 log2) for CPDS-treated group. The decrease in the antibody production may be partially related to the significant decrease in the B cell population observed in the immunophenotyping results. However, no loss of reactivity was observed from the lymphoproliferative assay when B cells were stimulated with LPS.

Series [2] has as its system NK cells. The series can be described thus: NK cell activity, standard 51Cr release assay with YAC-1 target cells. On the set-up: NK activity (%): concentration or dose not given beside the values. Conditions: for NK activity (%): % specific lysis, E:T 200:1. The format is in vivo, BALB/c mice. As for the experimental part:
NK cell activity was determined by using a standard NK assay (Coligan, J. E. et al. 1993. “In Vitro Assays for mouse lymphocyte function” Chapter 3, Current Protocol in Imnunology, John Wiley & Sons, New York) using YAC-1 cells (ATCC #TIB-160) as target cells. These cells were washed twice with HBSS, counted, and suspended at a concentration of 5×10^6 cells/ml. About 5×10^6 cells were labeled with 100 μCi of ^51Cr. Cells were incubated 90 minutes at 37° C. in a 5% CO2 humidified incubator and then washed three times with RPMI, counted, and suspended at a concentration of 1×10^5 cells/ml in complete RPMI. About 100 μl of target cells (˜1×10^4 cells) was put into each well of a round-bottom 96 wells plate.
Four dilutions of splenocytes were prepared: 2×10^7 cells/ml, 1×10^7 cells/ml, 0.5×10^7 cells/ml, and 0.25×10^7 cells/ml. A volume of 100 μl of each splenocyte dilution was plated in triplicate with the target cells for a final effector:target (E:T) ratio of 200:1, 100:1, 50:1 and 25:1.
A maximal control release was prepared in triplicate on each plate by adding 100 μl of 5% Triton X-100 solution instead of effector cells. Spontaneous release was prepared in triplicate on each plate by adding 100 μl of complete RPMI instead of effector cells. Plates were centrifuged and incubated 4 hours at 37° C. in a 5% CO2 humidified incubator. After incubation, the supernatants were collected and the ^51Cr release was determined using a gamma counter. The average cpm count was calculated for each triplicate. The average cpm count for the total and spontaneous release was also calculated. The percentage (%) of specific lysis is calculated using the following formula:
Where, ER=Experimental release of ^51Cr • TR=Total release of ^51Cr • SR=Spontaneous release of ^51Cr
The % of specific lysis for every ratio (200:1, 100:1, 50:1 and 25:1) was calculated. A graphic representation of the results is done: specific lysis % versus the ratio to verify the linearity. For BALB/c mice strains which usually show low NK activity, specific lysis corresponding to an E:T ratio of 200:1 is used to represent the data for each animal. The mean NK activity is then calculated for each control and treated group. Student's T test was performed between the control group and the treated group. The p value was calculated for statistical significance.
In this assay, the effect on the NK activity of feeding Balb/c mice with compound CPDS for short term (6 days) and longer term (30 days) was evaluated. The NK cells are a lymphocyte subset with non specific cytotoxicity activity. Results are presented as the % of specific lysis of target cells for a ratio of 200:1 (Table 8 and FIG. 2). Balb/c mice normally show low NK activity which justifies the choice of the 200:1 ratio for the comparison between groups.

For series [3] the following is noted: literature statement; cited from earlier work.
In series [4] the test system is feline immunodeficiency virus (FIV). Briefly: CPDS in an FIV-positive cat with FIDS symptoms (Example 10). The format is in vivo. From the text:
A very ill, young, spayed male cat ws presented with symptoms of feline immunodeficiency syndrome (FIDS). He had fever, diarrhea, and his glands were swollen. His coat was dull and the cat was listless.
His blood tested positive for feline immunodeficiency syndrome (FIV), as determined by ELISA testing with feline immunodeficiency virus antibody from Indexx Laboratories (Westbrook, Me.). The cat's weight upon presentation was 9.5 lbs.
Treatment of the cat with CPDS commenced the same day with a daily dose of 280 mg CPDS in the cat's diet. The regimen was continued for 30 days. […] The hair on the cat's muzzle and back was still thin. CPDS treatment was continued at 140 mg/day for another 60 days. […] His coat was rich and shiny, his eyes became bright, and his behavior was normal for a spayed male cat. The cat's weight after 60 days of treatment was 10.2 lbs, a gain of about 300 grams.

[5] abbreviates: FIV-positive cat, end of thirty days at 280 mg CPDS daily.

Several values for one entry are separate records, joined by “and”; a condition that tells them apart may be missing. Equal values may be shown once.

Consider `O=C(O)c1ccc(SSc2ccc(C(=O)O)cn2)nc1` [CPDS, 6,6′-dithiodinicotinic acid], for which the “Humoral response to KLH, variation (%)” value in series [1] (Group 4, 45 days on CPDS diet vs Group 3) is on record as −52.94%. Also, the “Serum dilution (lowest with apparent antibody response to KLH)” value in series [1] (Group 4, 45 days on CPDS diet, KLH s.c. at day 30, serum 15 days later, individual mice) was 1/4 (4×) and 0 (4×). For the same molecule, the “dilution log 2 (antibody titer to KLH)” value in series [1] (Group 4, 45 days on CPDS diet, Mean ± S.D.) is 1.00 log 2 and 1.00 ± 1.07 log 2; in series [1] (Group 4, 45 days on CPDS diet, individual mice) it was 2 log 2 (4×) and 0 log 2 (4×). The “NK activity, effect of CPDS diet” value in series [2] (6 days, vs control) is recorded as “No significant effect”. Moreover, the “NK activity, variation” value is 24.7% in series [2] (Group 2, 30 days on CPDS diet vs Group 1) and −13.1% in series [2] (Group 6, 6 days on CPDS diet vs group 5). The “NK activity (%)” value was 6.8 ± 1.4% in series [2] (Group 2, 30 days on CPDS diet, Mean ± S.D.); 8.7% and 7.9% and 5.0% and 6.9% and 6.3% and 5.6% (2×) and 8.2% in series [2] (Group 2, 30 days on CPDS diet, individual mice); 7.9 ± 2.0% in series [2] (Group 6, 6 days on CPDS diet, Mean ± S.D.); 10.2% and 7.0% and 6.6% in series [2] (Group 6, 6 days on CPDS diet, individual mice). Moreover, in series [3], the Toxicity entry is on record as “low toxicity”. Besides, in series [4] (FIV-positive cat, 280 mg CPDS daily in diet, after a few days), the “Cat's health” value was “showed improvement”. Also, the “Symptoms (fever, diarrhea, swollen glands)” value in series [4] (setting [5]) was “fever had subsided, the diarrhea was gone, its glands were no longer swollen”. For the same molecule, the “Test for the FIDS antibody” value in series [4] (setting [5]) is reported as “still tested positive”. Also, the “Overall state of the cat” value in series [4] (after 30 days at 280 mg/day and another 60 days at 140 mg/day) is given as “appeared to be healed”. Moreover, the “Weight gain of the cat” value in series [4] (after 60 days of treatment vs presentation) is “about 300 grams”. Besides, the “Cat's weight after treatment” value in series [4] (after 60 days of treatment, 9.5 lbs upon presentation) was 10.2 lbs.
